Tests used:
WiDr = assay: MTT cytotoxicity assay (% kill), WiDr; assay type: cell-based, human; settings: 0.1 μg/mL, 1 h exposure
Procedure: (§1) The following human tumor cell lines were obtained and cultured in sextuplicate microwells at 37° C. and 5% CO2 in humidified air and in 10% FBS in Eagles MEM: SK—N—FI, SK—N-AS, LS-174T, WiDr, HuTu-80, MCF7, NCI-AR, MES-Sar, and PL-45. Cells from each cell line were separately treated with an amount of one of the compounds of Formula I, II, or III (see Table 1). Cells were exposed to each compound (0.1 μg/mL or 1.0 μg/mL) for one hour or 24 hours, rinsed with drug-free media, and incubated for an additional five days. The number of viable cells after five days was measured using an MTT (3-(4,5-dimethylthiazol-2-yl)-2,5-diphenyltetrazolium bromide) assay (see, e.g., Mosmann, J. Immunol. Methods, 65(1-2), 55-63 (1983)).
(§2) The cytotoxicity of each drug was determined and expressed as the percent of cells killed (“% kill”).

NCI-AR = assay: MTT cytotoxicity assay (% kill), NCI-AR; assay type: cell-based, human; settings: 1 h exposure
Procedure: as §1, §2

COC(=O)[C@@]12OC[C@@]34C1[C@@H](OC(=O)CC(O)(C(C)C)C(C)C)C(=O)O[C@@H]3C[C@H]1C(C)=C(O)C(=O)C[C@]1(C)[C@H]4[C@@H](O)[C@@H]2O (stereo partly drawn) [15-O-(3′-hydroxy-3′-isopropyl-4′-methylpentanoyl)bruceolide]
0%: % kill, WiDr (WiDr) | % kill, NCI-AR (NCI-AR; 0.1 μg/mL) | % kill, NCI-AR (NCI-AR; 1.0 μg/mL)

— US20060281807A1, “Quassinoid compositions for the treatment of cancer and other proliferative diseases” (Tapestry Pharmaceuticals, Inc., priority 2005, published 2006)
